Legend:
Test in all cases: drug sensitivity score (DSS) from 5-point dose-response viability curve (DSS (area-under-curve based score)); higher = more sensitive (stronger growth inhibition or killing); extreme values may be limits of the assay
Settings in all cases: exposure time: 72 h; concentration range: 5 concentrations over 10,000-fold range
OV90 = test system: OV90
Outline: (§1)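 Ovarian cancer and normal ovarian cell lines were tested in 384-well plates, with drugs dispensed acoustically (Echo 550) in DMSO or water at five concentrations covering a 10,000-fold range. After 1,500 cells per well were added, plates were incubated for 3 days at 37°C and 5% CO2, and viability was read by CellTiter-Glo luminescence on a PHERAstar FS. Breeze software gave a drug sensitivity score for each cell line and drug, where a higher score means greater sensitivity. A value of zero means no response.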

COV318 = test system: COV318
Outline: as §1

Ovsaho = test system: Ovsaho
Outline: as §1

OVCAR4 = test system: OVCAR4
Outline: as §1

OVCAR8 = test system: OVCAR8
Outline: as §1

COV362 = test system: COV362
Outline: as §1

OVCAR5 = test system: OVCAR5
Outline: as §1

JHOS2 = test system: JHOS2
Outline: as §1

HOSE1C = test system: HOSE1C
Outline: as §1

Kuramochi = test system: Kuramochi
Outline: as §1

CAOV3 = test system: CAOV3
Outline: as §1

HOSE2C = test system: HOSE2C
Outline: as §1

Structure (SMILES)	drug sensitivity score (OV90)	drug sensitivity score (COV318)	drug sensitivity score (Ovsaho)	drug sensitivity score (OVCAR4)	drug sensitivity score (OVCAR8)	drug sensitivity score (COV362)	drug sensitivity score (OVCAR5)	drug sensitivity score (JHOS2)	drug sensitivity score (HOSE1C)	drug sensitivity score (Kuramochi)	drug sensitivity score (CAOV3)	drug sensitivity score (HOSE2C)
CCN1C(=O)CNc2ncc(-c3ccc(-c4nc[nH]n4)nc3C)nc21 [CC-115]	10.4	5.6	11.2	9.3	8.5	2.4	7.4	7.5	12	7.3	8	9.2
COc1cc(C)[nH]c(=O)c1CNC(=O)c1c(C)n([C@H](C)C2CCOCC2)c2ccccc12 [CPI-360]	0.6	0	0	0	0	0	0.8	0.2	0	0	0	0
Cc1noc2c1-c1ccccc1C(c1ccc(Cl)cc1)=N[C@H]2CC(N)=O [CPI-0610]	7.6	4.1	12.6	5	6.4	5.9	9.3	5	9.3	13	8.5	9.9
CN(C)c1cc2c(cc1Sc1nc3c(N)nccc3n1CCNCC(C)(C)C)OCO2 [CUDC-305]	14.5	4	3	8.5	16.4	8.8	10.8	10.8	11.5	5.9	14.5	15.3
COc1ccc(-c2nc(N3CCOCC3)c3sc(CN(C)c4ncc(C(=O)NO)cn4)cc3n2)cn1 [CUDC-907]	37	21.3	29.2	26.2	41.5	20.3	38.3	26.4	45.8	29.4	31.3	42.7
CO[C@H]1C(=O)[C@]2(C)[C@@H](OC)C[C@H]3OC[C@@]3(OC(C)=O)[C@H]2[C@H](OC(=O)c2ccccc2)[C@]2(O)C[C@H](OC(=O)[C@H](O)[C@@H](NC(=O)OC(C)(C)C)c3ccccc3)C(C)=C1C2(C)C [Cabazitaxel]	13.2	7.3	9	4.3	30.6	7.8	25.6	12.8	29.9	10.7	29.3	29.8
COc1cc2nccc(Oc3ccc(NC(=O)C4(C(=O)Nc5ccc(F)cc5)CC4)cc3)c2cc1OC [Cabozantinib]	4.5	2.2	0	0	0	0.2	1.5	1	0	3.1	0.4	0.6
C=CC(=O)Nc1cc2c(Nc3ccc(F)c(Cl)c3)ncnc2cc1OCCCN1CCOCC1 [Canertinib]	7.3	4.3	8.3	7.7	8.4	5.9	8	7.5	8.4	8	13.2	8.2
CCCCCOC(=O)Nc1nc(=O)n([C@@H]2O[C@H](C)[C@@H](O)[C@H]2O)cc1F [Capecitabine]	0	0	0	0	0	0	0.3	0	0.3	0	0.2	0
CNC(=O)c1ccc(-c2cnc3ncc(Cc4ccc5ncccc5c4)n3n2)cc1F [Capmatinib]	0	0	0	0	0	0	0	0	0	0.1	0	0
O=C(O)C1(C(=O)O)CCC1.[NH2-].[NH2-].[Pt+2] [Carboplatin]	3.6	5.5	5.5	5.6	1.9	0	4.7	3.1	7.8	4.9	6.1	5
CC(C)C[C@H](NC(=O)[C@H](CCc1ccccc1)NC(=O)CN1CCOCC1)C(=O)N[C@@H](Cc1ccccc1)C(=O)N[C@@H](CC(C)C)C(=O)[C@@]1(C)CO1 [Carfilzomib]	27.6	26.5	28.4	23.4	21.5	20.2	24	25.5	27.4	12.4	24.6	28.4
COc1cc2c(Oc3ccc4[nH]c(C)cc4c3F)ncnc2cc1OCCCN1CCCC1 [Cediranib]	0	0.2	0.7	0.5	0	0	0	0	0	0	0	0
Cc1ccc(-c2cc(C(F)(F)F)nn2-c2ccc(S(N)(=O)=O)cc2)cc1 [Celecoxib]	0	0	0	0	0	0	0	0	0	0	0	0
CCS(=O)(=O)N1CCN(c2ccc(Nc3ncc(C(N)=O)c(NC4CC4)n3)cc2)CC1 [Cerdulatinib]	0.6	0	0	0.3	0	2.7	0	3.5	0	0	0.2	0.8
Cc1cc(Nc2ncc(Cl)c(Nc3ccccc3S(=O)(=O)C(C)C)n2)c(OC(C)C)cc1C1CCNCC1 [Ceritinib]	4.9	0.8	3.3	1.5	0	0	3.8	0	0.7	2.1	2.7	2.2
CC(C)[C@H]1C(=O)N[C@@H](CCCNC(=N)N)C(=O)NCC(=O)N[C@@H](CC(=O)O)C(=O)N[C@H](Cc2ccccc2)C(=O)N1C [Cilengitide]	2.5	0	17.7	2.9	0.2	5.6	1.1	1.6	0	5.4	0	3.5
N.N.[Cl][Pt][Cl] [Cisplatin]	4.8	11.7	15.7	10.7	5	3.3	8.8	4.3	18.3	11.2	16.5	16.4
Nc1nc(Cl)nc2c1ncn2[C@H]1C[C@H](O)[C@@H](CO)O1 [Cladribine]	1.6	0	0.1	0	9.8	0.1	2.1	3.1	0	0	4.2	0
Nc1nc(Cl)nc2c1ncn2[C@@H]1O[C@H](CO)[C@@H](O)[C@@H]1F [Clofarabine]	11.9	4.7	4.7	0	22.4	7.3	9.5	13.5	25	3	17.1	24.1
CCN(CC)CCOc1ccc(C(=C(Cl)c2ccccc2)c2ccccc2)cc1 [Clomifene]	6.9	2.2	3.2	1.9	3.1	4.4	7	3.8	5.8	3.9	3.2	4.1
O=C(c1ccc(F)c(F)c1Nc1ccc(I)cc1F)N1CC(O)([C@@H]2CCCCN2)C1 [Cobimetinib]	25.7	0	8.9	1.4	2.4	3.5	8.8	4	0.9	4.6	8.5	3
COc1c(OCCCN2CCOCC2)ccc2c1N=C(NC(=O)c1cnc(N)nc1)N1CCN=C21 [Copanlisib]	3.5	3.8	6.3	5.3	5.7	2.5	10.4	2.6	4.8	8	9.9	6.6
CC1(COc2ccc3c(c2)ncn3-c2ccc3cccc(N4CCC(N)CC4)c3n2)COC1 [Crenolanib]	6	5.4	4.4	2.9	6.9	6.8	4.9	7.9	4.8	4	10	2.8
C[C@@H](Oc1cc(-c2cnn(C3CCNCC3)c2)cnc1N)c1c(Cl)ccc(F)c1Cl [Crizotinib]	0	0	0	0	0	0	0	0	0	0	0	0.1
CC(C)(C)c1nc(-c2cccc(NS(=O)(=O)c3c(F)cccc3F)c2F)c(-c2ccnc(N)n2)s1 [Dabrafenib]	17.9	0	0	0	0	0	0	1.5	0	0	0	0
COc1cc2ncnc(Nc3ccc(F)c(Cl)c3)c2cc1NC(=O)/C=C/CN1CCCCC1 [Dacomitinib]	0.1	0.2	2.6	1.3	2.1	0.2	5	0.8	1.1	2.4	8	0
Cc1c2oc3c(C)ccc(C(=O)N[C@@H]4C(=O)N[C@H](C(C)C)C(=O)N5CCC[C@H]5C(=O)N(C)CC(=O)N(C)[C@@H](C(C)C)C(=O)O[C@@H]4C)c3nc-2c(C(=O)N[C@@H]2C(=O)N[C@H](C(C)C)C(=O)N3CCC[C@H]3C(=O)N(C)CC(=O)N(C)[C@@H](C(C)C)C(=O)O[C@@H]2C)c(N)c1=O [Dactinomycin]	23.1	9	26.5	17.5	24.3	13.9	20.9	26.5	34.6	27.9	23.4	30.5
Cn1c(=O)n(-c2ccc(C(C)(C)C#N)cc2)c2c3cc(-c4cnc5ccccc5c4)ccc3ncc21 [Dactolisib]	16.7	13.4	15.8	15.3	14.4	3.7	15	13.7	20.5	14.4	11	13.9

Reference: the supplement of paper PMC11616607
